Source: US20090048229A1, “Methods for promoting wakefulness” (priority 2007, published 2009)
Where two headings read alike, the source gives them in different places.

Legend:
[1] = Dose range for cholinergic effects / max tolerated dose; assay type: in vivo, rat; settings: s.c., rats
Description: (§1) If less soluble, the maximum injection volume was 5 mL/kg.
(§2) Baseline temperatures were taken just before injection.

[2] = molecular target: T1, human recombinant acetylcholinesterase (Homo sapiens, UniProt P22303); assay: biochemical; settings: for inhibition at 10 µM: read-out: Inhibition of AChE (%) 10 μM
T1 construct: purchased Sigma Chemical Co (St. Louis, Mo.) C1682
T1 sequence (P22303 32-614): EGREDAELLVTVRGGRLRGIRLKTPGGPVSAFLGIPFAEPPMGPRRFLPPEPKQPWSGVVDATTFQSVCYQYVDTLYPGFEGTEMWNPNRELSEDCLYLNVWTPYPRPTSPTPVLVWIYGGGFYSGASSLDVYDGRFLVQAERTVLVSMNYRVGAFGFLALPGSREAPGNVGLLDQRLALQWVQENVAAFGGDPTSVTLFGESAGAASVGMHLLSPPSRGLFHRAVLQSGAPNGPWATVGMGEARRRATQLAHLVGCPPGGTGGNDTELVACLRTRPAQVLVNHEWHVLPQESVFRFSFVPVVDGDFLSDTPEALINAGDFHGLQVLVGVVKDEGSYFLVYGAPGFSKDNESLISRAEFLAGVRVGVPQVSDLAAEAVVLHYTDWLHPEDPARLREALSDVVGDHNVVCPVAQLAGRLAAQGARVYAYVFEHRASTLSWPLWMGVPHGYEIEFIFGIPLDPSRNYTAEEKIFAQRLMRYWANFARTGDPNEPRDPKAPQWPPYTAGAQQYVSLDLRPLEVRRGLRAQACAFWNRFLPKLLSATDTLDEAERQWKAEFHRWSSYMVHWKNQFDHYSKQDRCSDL
Description: All reagents employed in this experiment were of analytical grade. Acetylthiocholine iodide and 5,5′-dithiobis-(2-nitro)benzoic acid (DTNB) and human recombinant acetylcholinesterase (C1682) were purchased from Sigma Chemical Co (St. Louis, Mo.).
The enzyme, compound or stigmine and buffer were preincubated for 30 minutes. At the end of the preincubation period, the substrate acetylthiocholine was added. The final assay mixture contained 10 mM Tris-buffer (pH 8), 0.3 mM Acetylthiocholine and 0.33 mM DTNB and 0.08 U/ml enzyme. At least five (5) different concentrations of the compound or stigmine were assayed per IC50 experiment.
Hydrolysis of acetylthiocholine was monitored indirectly by measurement of the formation of the conjugate between thiocholine and DTNB.

BuChE = BuChE (Homo sapiens, UniProt P06276); assay: In vitro screening assay, BuChE inhibition; assay type: biochemical
BuChE, sequence (P06276 29-602): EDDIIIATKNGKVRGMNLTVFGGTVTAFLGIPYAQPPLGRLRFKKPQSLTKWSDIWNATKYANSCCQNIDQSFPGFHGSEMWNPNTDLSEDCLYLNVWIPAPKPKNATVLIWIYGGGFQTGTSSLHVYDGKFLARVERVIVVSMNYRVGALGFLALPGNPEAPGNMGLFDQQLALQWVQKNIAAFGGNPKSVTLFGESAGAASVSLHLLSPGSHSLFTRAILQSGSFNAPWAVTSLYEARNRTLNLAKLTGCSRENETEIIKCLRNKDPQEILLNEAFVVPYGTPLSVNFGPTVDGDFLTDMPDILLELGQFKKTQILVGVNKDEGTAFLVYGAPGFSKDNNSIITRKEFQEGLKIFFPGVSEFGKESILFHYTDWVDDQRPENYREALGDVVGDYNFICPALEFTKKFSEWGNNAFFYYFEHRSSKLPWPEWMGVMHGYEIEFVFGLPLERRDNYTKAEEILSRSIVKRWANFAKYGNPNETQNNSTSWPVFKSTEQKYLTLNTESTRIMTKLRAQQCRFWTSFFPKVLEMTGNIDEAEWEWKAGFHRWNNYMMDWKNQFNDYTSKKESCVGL
Excerpt: An in vitro screening assay with various conjugates was completed according to the methods described in Ellman G L et al., Biochem Pharmacol., 7:88-95 (1961) and in Nadarajah B, J. Anal. Toxicol., 16:192-193 (1992), both of which are herein incorporated by reference in their entireties. The assay method was completed according to the following: […]

[3] = test system: male CD IGS (Sprague Dawley derived) rats; assay: Induction of hypothermia after subcutaneous administration; assay type: in vivo, rat; settings: for Induction of hypothermia MED (mg/kg s.c.): hypothermia = fall in temperature of >0.5° C.; for fall in body temperature: subcutaneous administration
Excerpt: Cholinergic agonists cause hypothermia through a central mechanism of action (Freedman et al, 1989. Direct measurement of muscarinic agents in the central nervous system of mice using ex vivo binding. Eur. J. Pharmacol. 174:253-260). […] Since a premise of the present invention is that carbomyl esters would liberate the conjugated amine in the CNS only after inhibition of acetylcholinesterase, induction of hypothermia provides a useful correlation with the acetylcholinesterase inhibition detected in vitro and in vivo.
Hypothermia was defined as a fall in temperature of >0.5° C.
Hypothermia is a marker of CNS penetration for ACHE inhibitors.
as §1, §2

AChE = AChE (Homo sapiens, UniProt P22303); assay type: biochemical
AChE, sequence (P22303 32-614): as the sequence (P22303 32-614) above

butylryl cholinesterase = butylryl cholinesterase (Homo sapiens, UniProt P06276); assay: Inhibition of butyrylcholinesterase; assay type: biochemical; settings: read-out: Inhibition of BuChE (%) 10 μM
butylryl cholinesterase, sequence (P06276 29-602): as the sequence (P06276 29-602) above
Description: The inhibition of butylryl cholinesterase was determined using methods known in the art e.g., Alcala Molel M. et al. (2003) Characterization of the anticholinesterase activity of two new tacrin-huperzine A hybrids. Neuropharmacology, 44 (6), 749-755.

male Wistar rats = assay: Wake promotion (EEG/EMG sleep-wake, locomotor activity, body temperature); assay type: in vivo, rat; settings: for duration of wakefulness: administered 5 hours after lights on (CT-5), FIG. 2
Description: Test compounds in various dose ranges or vehicle were administered to male Wistar rats 5 hours after lights on (CT-5). EEG, EMG, locomotor activity, drink- and food-related activity, and body temperature were concurrently monitored for 30 hr before and after treatment from rats living in separate isolated recording chambers. Sleep-wake discriminations were carried out using SCORE2004™, proprietary real-time hardware and software technology of Hypnion, Inc. (Lexington, Mass.). Comparisons were made between the reference compounds: d-amphetamine, rivastigmine, modafinil, and the following carbamoyl ester test compounds: […]

[4] = 30 min preincubation, 25° C., read-out: Inhibition of AChE IC50

SMILES	Max Tolerated Dose [1]	IC50 [2] [nM]	BuChEI (%) 10 μM (BuChE; 10 μM) [%]	AChEI (%) 1 μM (AChE; 1 μM) [%]	AChEI (%) 10 μM (AChE; 10 μM) [%]	other results
C[C@@H](c1cccc(OC(=O)N[C@H]2C[C@@H]2c2ccccc2)c1)N(C)C (stereo in doubt) [Compound 2, S-riva-tranylcypromine]	30	200	67	84	97	BuChEI (%) 1 μM (BuChE): 23%; Hypothermia MED ([3]; s.c., rats): 10 mg/kg
Cc1ccccc1O[C@H](CCN(C)C(=O)Oc1cccc([C@H](C)N(C)C)c1)c1ccccc1 [Compound 5, S-riva-atomoxetine]	≧100	–	14	29	89	Hypothermia MED (mg/kg) ([3]; s.c., rats): ≦1 mg/kg
C[C@@H](c1cccc(OC(=O)N(C)CCCN2c3ccccc3CCc3ccccc32)c1)N(C)C [Compound 4, S-riva-desipramine]	≧100	200	60	91	99	BuChEI (%) 1 μM (BuChE): 16%; Hypothermia MED ([3]; s.c., rats): 3 mg/kg
COc1ccccc1CC(C)N(C)C(=O)Oc1cccc([C@H](C)N(C)C)c1 (some centres unmarked) [Compound 15, S-riva-methoxyphenamine]	–	1100	30	49	95	inhibition at 10 µM (butylryl cholinesterase): 30%; inhibition at 10 µM [2]: 95%
C#CCN(C(=O)Oc1cccc([C@H](C)N(C)C)c1)[C@H](C)Cc1ccccc1 [Compound 11, S-riva-desmethylselegiline]	–	–	17	13	52	–
NC(=O)C[S+]([O-])C(c1ccccc1)c1ccccc1 (centres unmarked) [modafinil, reference compound]	–	–	–	–	–	duration of wakefulness (male Wistar rats): increased the duration of wakefulness
C[C@H](N)Cc1ccccc1 [d-amphetamine, reference compound]	–	–	–	–	–	effect on body temperature (male Wistar rats; FIG. 4): increase in body temperature (hyperthermia); duration of wakefulness (male Wistar rats): increased the duration of wakefulness
COCCCC/C(=N\OCCNC(=O)Oc1cccc([C@H](C)N(C)C)c1)c1ccc(C(F)(F)F)cc1 [Compound 8, S-riva-fluvoxamine]	–	6100	6	17	76	–
C[C@@H](c1cccc(OC(=O)N2CCN(C3=Nc4ccccc4Oc4ccc(Cl)cc43)CC2)c1)N(C)C [Compound 3, S-riva-amoxapine]	≧100	20900	6	–	16	Hypothermia MED ([3]; s.c., rats): 10 mg/kg
C[C@@H](c1cccc(OC(=O)N(C)[C@@H](C)Cc2ccccc2)c1)N(C)C [Compound 13, S-riva-d-methamphetamine]	–	–	95	51	97	duration of wakefulness (male Wistar rats): dose-related increase in wakefulness; inhibition at 10 µM (butylryl cholinesterase): 95%; IC50 [2, 4]: 1100 nM; inhibition at 10 µM [2]: 97%; BuChEI (%) 1 μM (BuChE): 25%; Induction of hypothermia MED (mg/kg s.c.) ([3]; s.c.): 10 mg/kg s.c.; fall in body temperature [3]: dose-related-related fall in body temperature
C[C@@H](Cc1ccccc1)NC(=O)Oc1ccc2c(c1)[C@]1(C)CCN(C)[C@@H]1N2C [Compound 14, Physo-d-amphetamine]	–	–	28	45	94	inhibition at 10 µM (butylryl cholinesterase): 28%; inhibition at 10 µM [2]: 94%
C[C@@H](c1cccc(OC(=O)N(C)CCC(Oc2ccc(C(F)(F)F)cc2)c2ccccc2)c1)N(C)C (some centres unmarked) [Compound 7A, S-riva-fluoxetine]	≧100	4800	15	11	76	Hypothermia MED ([3]; s.c., rats): 3 mg/kg
C[C@@H](Cc1ccccc1)NC(=O)Oc1cccc([C@H](C)N(C)C)c1 [Compound 20, S-riva-d-amphetamine]	–	–	20	35	76	duration of wakefulness (male Wistar rats): dose-related increase in wakefulness; inhibition at 10 µM (butylryl cholinesterase): 20%; IC50 [2, 4]: 3100 nM; inhibition at 10 µM [2]: 76%; Induction of hypothermia MED (mg/kg s.c.) ([3]; s.c.): ≦1 mg/kg s.c.; fall in body temperature [3]: dose-related-related fall in body temperature
C#CCN(C(=O)Oc1cccc([C@@H](C)N(C)C)c1)[C@H](C)Cc1ccccc1 [Compound 17, R-riva-desmethylselegiline]	–	–	12	–	31	–
C[C@@H](c1cccc(OC(=O)N(C)CCC=C2c3ccccc3CCc3ccccc32)c1)N(C)C [Compound 5A, S-riva-nortriptyline]	–	500	55	81	99	BuChEI (%) 1 μM (BuChE): 24%
C#CCN(C(=O)Oc1ccc2c(c1)[C@]1(C)CCN(C)[C@@H]1N2C)[C@H](C)Cc1ccccc1 [Compound 18, Physo-desmethylselegiline]	–	–	8	–	37	–
CC(CC1CCCCC1)N(C)C(=O)Oc1cccc([C@H](C)N(C)C)c1 (some centres unmarked) [Compound 16, S-riva-propylhexedrine]	≧100	900	–	–	–	Hypothermia MED ([3]; s.c., rats): 10 mg/kg
C[C@@H](c1cccc(OC(=O)N(C)CCCC2c3ccccc3C=Cc3ccccc32)c1)N(C)C [Compound 6, S-riva-protriptyline]	>100	500	53	81	99	BuChEI (%) 1 μM (BuChE): 16%; Hypothermia MED ([3]; s.c., rats): 100 mg/kg
C[C@@H](c1cccc(OC(=O)N(C)CC[C@H](Oc2cccc3ccccc23)c2cccs2)c1)N(C)C [Compound 10, S-riva-duloxetine]	–	200 to 500	36	88	100	–
CN[C@@H](C)Cc1ccccc1 [d-methamphetamine, reference compound]	–	–	–	–	–	locomotor hyperactivity / stimulant activity (male Wistar rats; FIG. 5): locomotor hyperactivity
CN1CC[C@@]2(C)c3cc(OC(=O)Nc4ccccc4)ccc3N(C)[C@@H]12 [Phenserine, reference compound]	–	–	–	–	–	BuChEI (%) 10 μM (BuChE): 42%; AChEI (%) 1 μM (AChE): 93%; AChEI (%) 10 μM (AChE): 99%
C[C@@H](c1cccc(OC(=O)N2CC[C@@H](c3ccc(F)cc3)[C@H](COc3ccc4c(c3)OCO4)C2)c1)N(C)C [Compound 9A, S-riva-paroxetine]	–	9500	4	9	69	–
